Assay results as given in the supplement of paper PMC10307832.

Tests used:
Assay in all cases: relative viability (nuclei count vs DMSO), 5 days (fraction); higher = more cells survive
[1] = compound: COc1cc2nc(N3CCCN(C)CC3)nc(NC3CCN(Cc4ccccc4)CC3)c2cc1OC + Cc1cc(Nc2cc(N3CCN(C)CC3)nc(Sc3ccc(NC(=O)C4CC4)cc3)n2)n[nH]1 [Tozasertib] (partner 0.1 µM)
Method in brief: (§1)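 A single step with final 0.05% Triton X-100, 1% formaldehyde and 1 ug/ml Hoechst fixed the cells and stained nuclei 5 days after treatment. Lung cancer cell lines in 1536-well plates had been treated by pin tool the day after seeding with one drug alone or a fixed anchor-drug dose plus five library-drug doses (not always all listed) in √10 steps, and nuclei were counted on 4× images. Relative viability is the ratio of nuclei in treated wells to nuclei in vehicle wells, taken as the median of duplicate plates.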

[2] = compound: COc1cc2nc(N3CCCN(C)CC3)nc(NC3CCN(Cc4ccccc4)CC3)c2cc1OC + NC(=O)Nc1cc(-c2cccc(F)c2)sc1C(=O)N[C@H]1CCCNC1 [AZD7762] (partner 0.2 µM)
Method in brief: as §1

[3] = compound: COc1cc2nc(N3CCCN(C)CC3)nc(NC3CCN(Cc4ccccc4)CC3)c2cc1OC + Nc1nc2[nH]cc(CCc3ccc(C(=O)N[C@@H](CCC(=O)O)C(=O)O)cc3)c2c(=O)[nH]1 [Pemetrexed] (partner 0.2 µM)
Method in brief: as §1

AZD6482 + Phenformin = compound: Cc1cc([C@@H](C)Nc2ccccc2C(=O)O)c2nc(N3CCOCC3)cc(=O)n2c1 [AZD6482] + N=C(N)NC(=N)NCCc1ccccc1 [Phenformin] (partner 250 µM)
Method in brief: as §1

Cell Line | relative viability ([1]; first compound 0.2 µM) | relative viability ([1]; first compound 0.6325 µM) | relative viability ([1]; first compound 2 µM) | relative viability ([1]; first compound 6.325 µM) | relative viability ([2]; first compound 0.2 µM) | relative viability ([2]; first compound 0.6325 µM) | relative viability ([2]; first compound 2 µM) | relative viability ([2]; first compound 6.325 µM) | relative viability ([3]; first compound 0.2 µM) | relative viability ([3]; first compound 0.6325 µM) | relative viability ([3]; first compound 2 µM) | relative viability ([3]; first compound 6.325 µM) | relative viability (AZD6482 + Phenformin; first compound 0.08 µM) | relative viability (AZD6482 + Phenformin; first compound 0.253 µM) | relative viability (AZD6482 + Phenformin; first compound 0.8 µM) | relative viability (AZD6482 + Phenformin; first compound 2.53 µM) | relative viability (AZD6482 + Phenformin; first compound 8 µM)
201T | 0.973 | 0.908 | 0.946 | 0.924 | 0.657 | 0.619 | 0.492 | 0.602 | 0.31 | 0.334 | 0.335 | 0.279 | 0.436 | 0.433 | 0.496 | 0.308 | 0.314
A549 |  |  |  |  |  |  |  |  |  |  |  |  | 0.154 | 0.14 | 0.222 | 0.158 | 0.153
A-427 | 0.188 | 0.221 | 0.238 | 0.279 | 0.785 | 0.681 | 0.756 | 0.775 | 0.899 | 1 | 1.03 | 1.03 | 0.345 | 0.232 | 0.319 |  | 0.225
ABC-1 | 0.197 | 0.211 | 0.201 | 0.297 | 0.753 | 0.772 | 0.79 | 0.91 |  |  |  |  | 0.212 | 0.237 | 0.283 | 0.229 | 0.205
BEN | 0.532 | 0.47 | 0.576 | 0.525 | 0.8 | 0.82 | 0.752 | 0.736 | 0.827 | 0.943 | 1.01 | 0.716 | 0.349 | 0.281 | 0.24 | 0.277 | 0.182
CAL-12T | 0.363 | 0.381 | 0.365 | 0.323 | 0.725 | 0.615 | 0.614 | 0.595 | 1.23 | 1.01 | 1.19 | 1.04 | 0.615 | 0.517 | 0.568 | 0.336 | 0.418
COR-L23 | 0.24 | 0.195 | 0.319 | 0.457 |  |  |  |  | 0.205 | 0.21 | 0.208 | 0.199 | 0.412 | 0.445 | 0.455 | 0.343 | 0.373
COR-L 105 | 0.412 | 0.429 | 0.385 | 0.353 |  |  |  |  | 1.08 | 1.22 | 1.15 | 0.798 | 0.515 | 0.443 | 0.446 | 0.409 | 0.299
ChaGo-K-1 | 0.206 | 0.218 | 0.219 | 0.244 | 0.911 | 0.852 | 0.882 | 0.856 | 0.255 | 0.256 | 0.262 | 0.264 | 0.54 | 0.397 | 0.446 | 0.48 | 0.416
EKVX | 0.41 | 0.34 | 0.476 | 0.542 | 0.795 | 0.713 | 0.815 | 0.657 | 0.422 | 0.404 | 0.404 | 0.41 | 0.212 | 0.22 | 0.233 | 0.171 | 0.208
EMC-BAC-2 | 0.264 | 0.258 | 0.32 | 0.317 | 1.06 | 1.16 | 1.07 | 1.29 | 0.437 | 0.402 | 0.413 | 0.486 | 0.489 | 0.445 | 0.493 | 0.352 | 0.44
EPLC-272H | 0.247 | 0.269 | 0.344 | 0.29 | 0.209 | 0.209 | 0.184 | 0.258 | 0.335 | 0.403 | 0.397 | 0.365 | 0.311 | 0.241 | 0.343 | 0.24 | 0.154
H3255 | 0.604 | 0.851 | 0.641 | 0.742 | 0.911 | 0.86 | 0.972 | 0.795 | 0.563 | 0.557 | 0.595 | 0.547 | 0.356 | 0.333 | 0.386 | 0.343 | 0.34
HARA | 0.123 | 0.125 | 0.0997 | 0.236 | 0.306 | 0.337 | 0.453 | 0.266 | 0.258 | 0.227 | 0.227 | 0.269 | 0.376 | 0.395 | 0.486 | 0.399 | 0.168
HCC-15 | 0.477 | 0.378 | 0.557 | 0.368 | 1.28 | 1.2 | 1.15 | 1.34 | 0.216 | 0.225 | 0.214 | 0.208 | 0.499 | 0.462 | 0.457 | 0.349 | 0.406
HCC-44 | 0.973 | 0.922 | 1.25 | 1.22 | 1.04 | 0.995 | 0.994 | 1.01 | 0.67 | 0.636 | 0.611 | 0.646 | 0.255 | 0.14 | 0.189 | 0.169 | 0.167
HCC-78 | 0.388 | 0.439 | 0.314 | 0.409 | 0.588 | 0.675 | 0.67 | 0.717 | 0.912 | 0.899 | 0.918 | 1.01 | 0.506 | 0.421 | 0.562 | 0.309 | 0.31
HCC-366 | 0.117 | 0.108 | 0.105 | 0.0544 | 0.232 | 0.203 | 0.272 | 0.258 | 0.186 | 0.151 | 0.171 | 0.164 | 0.663 | 0.609 | 0.636 | 0.477 | 0.45
HCC-827 | 0.406 | 0.45 | 0.374 | 0.423 | 0.199 | 0.213 | 0.15 | 0.238 | 0.259 | 0.277 | 0.215 | 0.235 | 0.45 | 0.345 | 0.381 | 0.288 | 0.301

Cell Line | relative viability ([1]; first compound 0.2 µM) | relative viability ([1]; first compound 0.6325 µM) | relative viability ([1]; first compound 2 µM) | relative viability ([1]; first compound 6.325 µM) | relative viability ([2]; first compound 0.2 µM) | relative viability ([2]; first compound 0.6325 µM) | relative viability ([2]; first compound 2 µM) | relative viability ([2]; first compound 6.325 µM) | relative viability ([3]; first compound 0.2 µM) | relative viability ([3]; first compound 0.6325 µM) | relative viability ([3]; first compound 2 µM) | relative viability ([3]; first compound 6.325 µM) | relative viability (AZD6482 + Phenformin; first compound 0.08 µM) | relative viability (AZD6482 + Phenformin; first compound 0.253 µM) | relative viability (AZD6482 + Phenformin; first compound 0.8 µM) | relative viability (AZD6482 + Phenformin; first compound 2.53 µM) | relative viability (AZD6482 + Phenformin; first compound 8 µM)
HOP-62 | 0.406 | 0.371 | 0.401 | 0.441 | 0.485 | 0.425 | 0.726 | 0.521 | 0.318 | 0.257 | 0.3 | 0.292 | 0.679 | 0.733 | 0.745 | 0.577 | 0.707
LC-2-ad | 0.493 | 0.436 | 0.551 | 0.47 | 0.827 | 0.908 | 0.941 | 0.91 | 0.301 | 0.27 | 0.268 | 0.264 | 0.615 | 0.497 | 0.6 | 0.442 | 0.471
LCLC-97TM1 | 0.185 | 0.423 | 0.311 | 0.256 | 0.335 | 0.269 | 0.297 | 0.277 | 0.194 | 0.156 | 0.189 | 0.199 | 0.443 | 0.44 | 0.39 | 0.363 | 0.308
NCI-H520 | 0.405 | 0.405 | 0.437 | 0.507 |  |  |  |  | 0.608 | 0.622 | 0.573 | 0.183 | 0.402 | 0.283 | 0.285 | 0.166 | 0.225
NCI-H661 | 0.377 | 0.342 | 0.344 | 0.363 |  |  |  |  | 0.882 | 0.894 | 0.904 | 0.923 | 0.285 | 0.274 | 0.297 | 0.245 | 0.216
NCI-H727 | 0.655 | 0.689 | 0.828 | 0.584 | 0.646 | 0.449 | 0.578 | 0.668 |  |  |  |  | 0.445 | 0.683 | 0.465 | 0.488 | 0.315
NCI-H1563 |  |  |  |  |  |  |  |  | 0.646 | 0.9 | 0.879 | 0.896 | 0.684 | 0.653 | 0.67 | 0.65 | 0.629
NCI-H1623 | 0.432 | 0.45 | 0.442 | 0.411 |  |  |  |  |  |  |  |  | 0.577 | 0.579 | 0.531 | 0.502 | 0.534
NCI-H1648 | 0.491 | 0.527 | 0.508 | 0.538 |  | 0.708 |  | 0.68 |  | 0.904 |  | 0.791 |  |  |  |  | 
NCI-H1650 | 0.482 | 0.483 | 0.576 | 0.49 |  |  |  |  | 0.389 | 0.407 | 0.441 | 0.313 | 0.333 | 0.369 | 0.373 | 0.233 | 0.297
NCI-H1703 |  |  |  |  | 0.118 |  | 0.125 | 0.184 |  |  |  |  |  |  |  |  | 
NCI-H1792 |  |  |  |  | 0.778 | 0.591 | 0.76 | 0.58 | 0.74 | 0.826 | 0.985 | 0.752 | 0.222 | 0.237 | 0.298 |  | 0.13
NCI-H2009 | 0.761 | 0.727 | 0.855 | 0.656 |  |  |  |  | 1 | 0.972 | 1.03 | 0.943 | 0.476 | 0.49 | 0.442 | 0.283 | 0.34
NCI-H2023 | 0.368 | 0.301 | 0.46 | 0.109 |  |  |  |  | 0.161 | 0.254 | 0.248 | 0.144 | 0.384 | 0.368 | 0.379 | 0.261 | 0.29
NCI-H2228 | 0.254 | 0.311 | 0.265 | 0.257 |  |  |  |  | 0.32 | 0.347 | 0.336 | 0.26 |  | 0.315 | 0.324 | 0.309 | 0.284
SK-LU-1 | 0.363 | 0.349 | 0.363 | 0.352 |  |  |  |  | 0.952 | 0.949 | 1.03 | 0.889 |  | 0.454 | 0.502 | 0.347 | 0.237
SK-MES-1 | 0.882 | 0.912 | 0.852 | 0.1 |  |  |  |  | 1.06 | 0.887 | 0.904 | 0.495 | 0.612 | 0.75 | 0.611 | 0.357 | 0.406
SW 1573 | 0.196 | 0.165 | 0.246 | 0.128 |  |  |  |  | 0.797 | 0.682 | 0.733 | 0.623 | 0.301 | 0.296 | 0.383 | 0.19 | 0.221
